Test results as given in patent publication US20180220653A1, “Methods for Identifying Compounds that Directly Bind to Insect Transient Receptor Potential Channels” (priority 2015, published 2018).
Read-outs that look alike come from different tables or passages of the source.

Tests used:
[1] = target: mouse TRPV channel, mTRPV4 (Mus musculus, UniProt Q9EPK8); experiment: Calcium response in CHO cells expressing mTRPV4; type: cell-based; conditions: CHO cells transduced with mTRPV4 adenovirus; FIG. 6
[2] = test system: Nan and Iav from pea aphid; experiment: Two-electrode voltage clamp in Xenopus laevis oocytes injected with Nan and Iav mRNA; type: cell-based, Acyrthosiphon pisum; conditions: 10 uM dPFQ; oocytes with Nan+Iav vs Nan or Iav alone; FIG. 4a
[3] = test system: Nan; type: binding, Drosophila; conditions: for displacement of [3H]-afidopyropen from Nan-only sites: Ki not accurately determined, curves did not reach bottom plateaus
[4] = target: T1, insect TRPV channels, Nan and Iav (Drosophila melanogaster, UniProt M9PI57+Q9W3W0); conditions: for EC50: read-out: half-maximal effective concentrations (EC50), calcium mobilization, CHO cells co-expressing Nan and Iav, FIG. 5
T1 sequence (M9PI57 1-834): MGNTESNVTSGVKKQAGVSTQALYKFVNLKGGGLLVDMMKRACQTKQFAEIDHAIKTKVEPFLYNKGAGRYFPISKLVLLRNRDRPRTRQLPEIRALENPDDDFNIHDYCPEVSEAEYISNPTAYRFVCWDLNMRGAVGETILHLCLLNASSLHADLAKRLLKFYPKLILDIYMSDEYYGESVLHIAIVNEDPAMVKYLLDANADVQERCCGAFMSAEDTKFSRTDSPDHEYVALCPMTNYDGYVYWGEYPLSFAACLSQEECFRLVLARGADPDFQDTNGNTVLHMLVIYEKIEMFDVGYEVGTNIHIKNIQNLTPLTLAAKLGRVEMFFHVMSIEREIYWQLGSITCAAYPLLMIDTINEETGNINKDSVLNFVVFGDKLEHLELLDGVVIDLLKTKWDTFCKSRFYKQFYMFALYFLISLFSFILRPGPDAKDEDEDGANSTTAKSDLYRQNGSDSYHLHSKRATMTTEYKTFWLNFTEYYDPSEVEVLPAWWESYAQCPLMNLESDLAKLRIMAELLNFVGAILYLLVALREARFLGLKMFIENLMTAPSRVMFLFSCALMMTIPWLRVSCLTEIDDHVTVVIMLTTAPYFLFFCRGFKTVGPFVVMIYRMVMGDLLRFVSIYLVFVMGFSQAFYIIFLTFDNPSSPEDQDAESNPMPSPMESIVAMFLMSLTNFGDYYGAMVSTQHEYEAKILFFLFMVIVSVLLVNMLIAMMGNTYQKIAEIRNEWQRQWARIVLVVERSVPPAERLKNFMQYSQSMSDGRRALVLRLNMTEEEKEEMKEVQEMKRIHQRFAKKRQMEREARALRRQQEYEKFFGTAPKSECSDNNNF
T1 sequence (Q9W3W0 1-1123): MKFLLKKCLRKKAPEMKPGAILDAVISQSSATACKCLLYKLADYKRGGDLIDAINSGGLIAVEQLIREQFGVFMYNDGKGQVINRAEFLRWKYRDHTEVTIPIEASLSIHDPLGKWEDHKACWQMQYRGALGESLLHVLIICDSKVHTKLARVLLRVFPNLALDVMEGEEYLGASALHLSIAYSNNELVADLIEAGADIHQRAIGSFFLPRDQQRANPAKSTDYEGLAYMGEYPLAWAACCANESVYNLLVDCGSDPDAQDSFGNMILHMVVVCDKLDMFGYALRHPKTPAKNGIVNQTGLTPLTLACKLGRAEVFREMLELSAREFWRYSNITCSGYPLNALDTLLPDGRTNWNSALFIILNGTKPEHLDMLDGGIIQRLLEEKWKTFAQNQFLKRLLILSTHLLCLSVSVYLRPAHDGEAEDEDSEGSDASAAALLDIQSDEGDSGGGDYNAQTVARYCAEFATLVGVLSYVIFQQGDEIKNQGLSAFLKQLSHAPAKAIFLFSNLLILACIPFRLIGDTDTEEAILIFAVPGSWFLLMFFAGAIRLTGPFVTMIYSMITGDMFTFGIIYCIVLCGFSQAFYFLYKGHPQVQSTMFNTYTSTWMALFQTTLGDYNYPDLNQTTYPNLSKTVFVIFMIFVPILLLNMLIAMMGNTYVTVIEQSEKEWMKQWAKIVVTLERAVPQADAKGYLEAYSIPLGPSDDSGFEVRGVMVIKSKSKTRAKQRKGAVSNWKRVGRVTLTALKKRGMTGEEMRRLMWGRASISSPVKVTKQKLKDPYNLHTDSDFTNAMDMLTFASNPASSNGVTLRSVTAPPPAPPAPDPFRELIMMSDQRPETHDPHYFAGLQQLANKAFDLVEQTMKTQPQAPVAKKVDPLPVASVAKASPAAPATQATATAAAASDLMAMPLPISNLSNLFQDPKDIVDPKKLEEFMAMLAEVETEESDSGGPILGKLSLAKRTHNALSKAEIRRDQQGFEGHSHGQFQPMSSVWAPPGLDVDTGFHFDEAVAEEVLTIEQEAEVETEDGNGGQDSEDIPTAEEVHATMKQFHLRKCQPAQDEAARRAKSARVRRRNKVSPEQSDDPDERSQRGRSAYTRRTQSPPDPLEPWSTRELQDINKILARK

[5] = target: T1, insect TRPV channels, Nan and Iav
[6] = Solubility observed in competition binding assay; conditions: at high concentrations, binding buffer
[7] = test system: American grasshoppers (Schistocerca americana); experiment: Leg extension assay in American grasshoppers; type: in vivo; conditions: injection, 10 mM in 100% DMSO, 3 μl per animal; assessed 40-60 minutes post-injection
Procedure: American grasshoppers (Schistocerca americana) were obtained from Dr. Hojun Song (University of Central Florida). Test compounds (10 mM in 100% DMSO), or vehicle (100% DMSO) were applied by injection through the abdominal intersegmental cuticle (3 μl per animal), using Hamilton syringe. The effects of compounds were assessed 40-60 minutes post-injection.

[8] = test system: locusts (Locusta migratoria); conditions: injection, Ausborn et al., 2005; cited from earlier work
[9] = target: T1, insect TRPV channels, Nan and Iav; experiment: cell-based
[10] = Nan+Iav cells vs parental cells and cells expressing Nan or Iav alone, FIG. 3
[11] = Nan+Iav cells vs parental cells and cells expressing Nan or Iav alone, FIG. 4

Chain of mouse TRPV channel, mTRPV4 (Q9EPK8 whole entry): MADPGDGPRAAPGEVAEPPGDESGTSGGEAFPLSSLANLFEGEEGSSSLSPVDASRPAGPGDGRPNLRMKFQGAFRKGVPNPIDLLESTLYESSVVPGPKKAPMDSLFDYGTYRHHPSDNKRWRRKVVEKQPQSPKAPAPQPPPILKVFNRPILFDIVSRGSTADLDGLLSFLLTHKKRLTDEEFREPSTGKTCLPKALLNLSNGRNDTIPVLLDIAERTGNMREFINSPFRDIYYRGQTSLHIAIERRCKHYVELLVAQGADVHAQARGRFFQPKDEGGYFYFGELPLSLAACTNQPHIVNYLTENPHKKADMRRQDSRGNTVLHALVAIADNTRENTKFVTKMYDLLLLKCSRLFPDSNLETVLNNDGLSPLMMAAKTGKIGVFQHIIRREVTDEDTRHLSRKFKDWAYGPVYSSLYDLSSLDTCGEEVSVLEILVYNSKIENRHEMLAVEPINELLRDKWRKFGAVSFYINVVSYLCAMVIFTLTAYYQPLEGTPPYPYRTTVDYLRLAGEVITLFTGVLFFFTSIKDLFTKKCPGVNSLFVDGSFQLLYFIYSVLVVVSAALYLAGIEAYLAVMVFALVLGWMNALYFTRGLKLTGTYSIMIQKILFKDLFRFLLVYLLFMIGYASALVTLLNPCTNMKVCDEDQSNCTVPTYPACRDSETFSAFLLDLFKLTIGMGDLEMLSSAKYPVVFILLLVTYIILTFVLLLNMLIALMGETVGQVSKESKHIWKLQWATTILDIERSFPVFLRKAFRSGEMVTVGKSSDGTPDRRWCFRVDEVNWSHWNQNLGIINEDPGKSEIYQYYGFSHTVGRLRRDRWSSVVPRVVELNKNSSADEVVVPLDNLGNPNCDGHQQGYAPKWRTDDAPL

| Structure (SMILES) | calcium response / activation of mTRPV4 [1] | inward and outward current responses [2] | displacement of [3H]-afidopyropen from Nan-only sites [3] | calcium mobilization response [4, 10] | EC50 [4] [nM] | membrane depolarization response [5, 11] | solubility [6] | hind leg extension [7] | Ki ([3]; Nan-only expressing membranes, FIG. 9B, read-out: Ki, displacement assay) [nM] | calcium mobilization response [4] | membrane depolarization response [5] | hind leg extension [8] | EC50 [9] [nM] |
| --- | --- | --- | --- | --- | --- | --- | --- | --- | --- | --- | --- | --- | --- |
| CC(C)C[C@H](NC(=O)c1cc2ccccc2s1)C(=O)N1CCN(C(=O)[C@H](CO)NS(=O)(=O)c2ccc(Cl)cc2Cl)CC1 [GSK1016790A, N-((1S)-1-{[4-((2S)-2-{[(2,4-dichlorophenyl)sulfonyl]amino}-3-hydroxypropanoyl)-1-piperazinyl]carbonyl}-3-methylbutyl)-1-benzothiophene-2-carboxamide] | evoked strong calcium response |  |  |  |  |  |  |  |  |  |  |  |  |
| O=C1Nc2ccc(C(F)(C(F)(F)F)C(F)(F)F)cc2CN1NCc1cccnc1 [N-deacetylated pyrifluquinazon] |  | evoked both inward and outward current responses only in oocytes expressing both Nan and Iav | clearly displaced | only in cells co-infected with Nan and Iav viruses | 64 | only in cells co-infected with Nan and Iav viruses | poor solubility |  |  |  |  |  |  |
| C[C@]1(COC(=O)C2CC2)[C@@H]2C[C@H](O)[C@@]3(C)Oc4cc(-c5cccnc5)oc(=O)c4[C@H](O)[C@@H]3[C@@]2(C)CC[C@@H]1OC(=O)C1CC1 [afidopyropen] | failed to activate |  |  | only in cells co-infected with Nan and Iav viruses | 1 | only in cells co-infected with Nan and Iav viruses |  | elicited hind leg extension | 3.1 |  |  |  |  |
| CC1=NNC(=O)N(/N=C/c2cccnc2)C1 [pymetrozine] |  |  | clearly displaced |  |  |  | poor solubility | Elicit Characteristic Hind Leg Extension |  | only in cells co-infected with Nan and Iav viruses | only in cells co-infected with Nan and Iav viruses | produce characteristic hind leg extension | 51 |
